Columns and labels:
E. tenella lectin = assay: Hemagglutination inhibition assay, lectin of E. tenella sporozoite lysate (rabbit erythrocytes); format: biochemical, Eimeria tenella; conditions: minimum concentration inhibiting 4 hemagglutination units of lectin; 2% rabbit erythrocytes, room temperature, 60 minutes
Source text: (§1) The lectin activity is preferably determined by a hemagglutination assay of rabbit erythrocytes. It is desirably performed in "U" well microtiter plates using lysates prepared from the parasites of interest. The sporozoites of the parasite of interest are washed three times in phosphate buffered saline (PBS), and adjusted to a concentration of 1×10^7 /ml. They are lysed by sonication in "Branson" sonicator; cleared of particulate material by filtration; and assayed for lectin activity using a conventionally known hemagglutination assay. In this assay, 2% rabbit erythrocytes in PBS are added to serial doubling dilutions of the prepared test lysate in PBS containing 2 mg/ml of bovine serum albumin (BSA) and incubated at 23° C. (i.e., room temperature) for 1 hour. Lectin titer is defined as the reciprocal of the highest agglutinating dilution as determined by direct observation, which is defined as one agglutinating unit.
(§2) Sugar specificity and characterization is determined by a standard hemagglutination inhibition assay. 2% rabbit erythrocytes are added to serial doubling dilutions of the sugar-comprising test compound in PBS containing 2 mg/ml BSA and 4 hemagglutination units of lectins; followed by incubation at room temperature for 60 minutes. The minimum inhibitory concentration of the test compound is defined as the minimum concentration which is required for inhibiting 4 hemagglutination units of lectins. The following represent examples of suitable test compounds: (1) glycoproteins such as fetuine, bovine submaxillary mucin, hog gastric mucin, and -1- acid glycoprotein; (2) monosaccharides such as arabinose, fucose, glucose, galactose, mannose, N-acetylglucosamine, and N-acetylgalactosamine and their derivatives; and (3) oligosaccharides including chitobiose and chitotetrose.

E. acervulina lectin = assay: Hemagglutination inhibition assay, lectin of E. acervulina sporozoite lysate (rabbit erythrocytes); format: biochemical, Eimeria acervulina; conditions: minimum concentration inhibiting 4 hemagglutination units of lectin; 2% rabbit erythrocytes, room temperature, 60 minutes
Source text: as §1, §2

[1] = test system: embryonic chick kidney cells; assay: 3H uracil counts of host cells with fetuin, no parasite; format: cell-based; conditions: Host Cells + 15 mg/ml Fetuin, mean of eight cultures
Experimental: (§3) The sporozoites are then pretreated for one hour in cell culture nutrient (Waymouth's MAB 87/3, without serum) containing various concentration of inhibiting sugars, such as 0.1, 1.0, and 10.0 mg/ml fetuine, before being inoculated onto 24-48 hour primary cultures of embryonic chick kidney cells prepared in 24 or 96 well plates. Treatment with the inhibiting sugar, such as fetuine, is continuous at the tested concentration during the incubation period, allowing the parasite development to proceed for 48 or 96 hours. Nutrient is changed every 48 hours. Because parasites developing in cell culture, but not the host cells, take up ^3 H uracil, add 2 u Ci to each well in a 96 well plate 18 to 24 hours beore counting by liquid scintillation. Nutrient is removed from the parasitized cell cultures which are then treated with PBS solution, pH 7.6-7.8, containing 0.5% trypsin and 0.022% EDTA to detach the cells from the culture vessel, and harvested with a PHD Cell Harvester (Cambridge Instrument) onto glass fiber filter discs. Individual discs are placed into scintillation vials with 3.5 ml Toluene (plus 5.262 grams per 4 liters of PPO [2,5-diphenyloxazole]) and samples are then counted in a Beckman scintillation counter.

E. maxima lectin = assay: Hemagglutination inhibition assay, lectin of E. maxima sporozoite lysate (rabbit erythrocytes); format: biochemical, Eimeria maxima; conditions: minimum concentration inhibiting 4 hemagglutination units of lectin; 2% rabbit erythrocytes, room temperature, 60 minutes
Source text: as §1
Sugar specificity and characterization is determined by a standard hemagglutination inhibition assay. 2% rabbit erythrocytes are added to serial doubling dilutions of the sugar-comprising test compound in PBS containing 2 mg/ml BSA and 4 hemagglutination units of lectins; followed by incubation at room temperature for 60 minutes. […]

E. tenella = assay: Inhibition of E. tenella development in cell culture (3H uracil uptake, Schmatz et al.); format: cell-based, Eimeria tenella; conditions: for Scintillation Counts (24 hr), Trial 1 / Scintillation Counts (24 hr), Trial 2: 96 hours development, mean of eight cultures
Experimental: A series of experimental assays were performed to measure the in vitro inhibition of Coccidia infections by compositions comprising at least one sugar. The inhibition assay is one developed by Schmatz et al. [J. Protozology 33:109-114 (1986)] in which inhibition of sporozoite development is correlated with a decrease in ^3 H uracil uptake by the host cells.
Sporozoites are excysted aseptically from sterile coccidis oocysts, cleaned of debris by passage through a cellulose or glass wool column, counted, and diluted to a concentration of approximately 2.5×10^5 sporozoites per ml.
as §3

[2] = Host Cells + Parasite + 5 mg/ml Fetuin
[3] = Host Cells + Parasite + 10 mg/ml Fetuin
[4] = Host Cells + Parasite + 15 mg/ml Fetuin

Row | Molecule | Lowest Concentration that Inhibited Lectin Agglutination, E. tenella (E. tenella lectin) | Lowest Concentration that Inhibited Lectin Agglutination, E. acervulina (E. acervulina lectin) | other results
1 | C[C@@H]1OC(O)[C@@H](O)[C@H](O)[C@@H]1O (single isomer, unassigned) [L(-)-Fucose] | 1.25 mg/mL |  | 
2 | COC1O[C@H](CO)[C@@H](O)[C@H](O)[C@H]1O (stereo partly drawn) [1-o-CH3 -D-Glucoside] | 4.1 mg/mL |  | 
3 | O=C[C@@H](O)[C@H](O)[C@H](O)CO [Arabinose] |  | 25.0 mg/mL | 
4 | CC(=O)N[C@H]1[C@H](O[C@H]2[C@H](O)[C@@H](NC(C)=O)C(O)O[C@@H]2CO)O[C@H](CO)[C@@H](O[C@@H]2O[C@H](CO)[C@@H](O[C@@H]3O[C@H](CO)[C@@H](O)[C@H](O)[C@H]3NC(C)=O)[C@H](O)[C@H]2NC(C)=O)[C@@H]1O (stereo partly drawn) [Chitotetrose] | 0.03 mg/mL |  | 
5 | O=[N+]([O-])c1ccc(OC2O[C@H](CO)[C@@H](O)[C@H](O)[C@H]2O)cc1 (stereo partly drawn) [P-Nitro-o-D-Glucoside] | 12.5 mg/mL |  | 
6 | Acid Glycoprotein | 1.25 mg/mL | 0.5 mg/mL | 
7 | Bovine Submaxillary Mucin [Bovine Submaxillary Mucin (BSM)] | 0.083 mg/mL | 0.03 mg/mL | 
8 | Chitobiose | 1.25 mg/mL |  | 
9 | Hog Gastric Mucin | 0.125 mg/mL | 0.5 mg/mL | 
10 | Fetuin (protein, UniProt P12763 19-359, looked up, glycoprotein) Alpha-2-HS-glycoprotein: IPLDPVAGYKEPACDDPDTEQAALAAVDYINKHLPRGYKHTLNQIDSVKVWPRRPTGEVYDIEIDTLETTCHVLDPTPLANCSVRQQTQHAVEGDCDIHVLKQDGQFSVLFTKCDSSPDSAEDVRKLCPDCPLLAPLNDSRVVHAVEVALATFNAESNGSYLQLVEISRAQFVPLPVSVSVEFAVAATDCIAKEVVDPTKCNLLAEKQYGFCKGSVIQKALGGEDVRVTCTLFQTQPVIPQPQPDGAEAEAPSAVPDAAGPTPSAAGPPVASVVVGPSVVAVPLPLHRAHYDLRHTFSGVASVESSSGEAFHVGKTPIVGQPSIPGGPVRLCPGRIRYFKI | 0.078 mg/mL | 0.13 mg/mL | Scintillation Counts (24 hr), Trial 1 [1]: 7,826.4; Scintillation Counts (24 hr), Trial 2 [1]: 1,942.7; Lowest Concentration that Inhibited Lectin Agglutination, E. maxima (E. maxima lectin): 0.4 mg/mL; Scintillation Counts (24 hr), Trial 1 (E. tenella; [2]): 8,135.0; Scintillation Counts (24 hr), Trial 2 (E. tenella; [2]): 1,394.7; Scintillation Counts (24 hr), Trial 1 (E. tenella; [3]): 8,625.6; Scintillation Counts (24 hr), Trial 2 (E. tenella; [3]): 1,556.4; Scintillation Counts (24 hr), Trial 1 (E. tenella; [4]): 4,328.3; Scintillation Counts (24 hr), Trial 2 (E. tenella; [4]): 796.1; 3H uracil uptake, inhibition of E. tennella development (in words) (E. tenella; summary of Table E2): substantial reductions

From US5141925A, “Vivo methods for treating coccidiosis” (Trustees of Tufts College, priority 1990, dated 1992)
